The values that follow come from patent US7435716B2, “Compounds pharmaceutical compositions and methods for treatment of bacteremia and/or septicemia” (Ramot At Tel Aviv University Ltd., priority 2001, dated 2008).

Like-named read-outs stand apart in the source and are kept apart here.

The test system of one data set is Escherichia coli. Put plainly: Sensitization assay (fold decrease in MIC of novobiocin). It counts as cell-based. The settings on record: sensitization towards novobiocin, peptide 50 μg/ml, relative to PMBN. As to the method: (§1) Bacterial suspension (10 μL, 1×10^5 CFU) was inoculated into microtiter plate wells containing 100 μL of a serial two-fold dilution (1000-0.5 μg/mL) of novobiocin (Sigma) in ISB. To each well, 10 μL of the test peptide was added to a final concentration of 50 μg/mL. The fold decrease in MIC for novobiocin comparing wells with and without test peptides was calculated and designated as sensitizing activity. The relative sensitizing activity of the test peptide was calculated as percent of the sensitizing activity of 50 μg/mL pPMBN.

Data set [1] deals with Klebsiella pneumonia. The description is as above. Format: cell-based. Particulars: sensitization towards novobiocin, peptide 50 μg/ml, relative to PMBN. On the procedure:
as §1

In the next data set the test system is E. coli LPS. Description: Displacement assay of dansyl-PMBN from LPS. Format: binding. Particulars: for ability to displace Dansyl-PMBN from LPS / affinity to LPS, in words: comparison with PMBN or polymyxin B; for IC50: inhibits 50% of initial fluorescence of 0.55 μM Dansyl-PMBN bound to E. coli-LPS, read-out: Peptides IC50. As to the method:
To determine the binding of a given peptide to LPS, a displacement assay was performed in which 5 or 10 μl (1×10^−5-1×10^−3 M) of the tested peptide at desired concentrations were added at 5 minutes interval to a pre-equilibrated mixture of LPS solution (2 mL, 3 μg/mL, ˜2×10^−7 M) in HEPES buffer (5 mM, pH 7.2) and dansyl-PMBN (0.55 μM). The fluorescence intensity (excitation wavelength of 340 nm and emission wavelength of 485 nm) was recorded after each time interval. Each experiment was repeated 2-3 times. The percent inhibition of fluorescence intensity was plotted as a function of the peptide concentration from which the concentration required for maximal (Imax) and 50% (IC50) displacement of the dansyl-PMBN from LPS was derived.
Values were calculated as peptide's potency, at a concentration of 50 μg/ml, relatively to PMBN. IC50 values represent peptide concentrations that inhibits 50% of the initial fluorescence of 0.55 μM Dansyl-PMBN bound to E. coli-LPS.

The next data set relates to E. coli. Description: Minimal inhibitory concentration (MIC) assay. It counts as cell-based. The settings on record: compared with PMBN. As to the method: (§2) Gram-negative bacteria were grown on nutrient agar plates (Difco Laboratories, Detroit, Mich.) and kept at 4° C. An overnight culture in isotonic sensitest broth (ISB, Oxoid) was adjusted to 1×10^5 CFU/mL and inoculated into microtiter plate wells containing each 100 μL of a serial twofold dilution (1000-0.5 μg/mL) of the tested antibiotics in ISB. MIC was defined as the lowest concentration at which there was no visible bacterial growth after incubation for 20 hours at 37° C. The results are reported for 4-8 separate tests that varied by no more than one dilution.

Data set [2] deals with Klebsiella pneumonia. Put plainly: Minimal inhibitory concentration (MIC) assay. Format: cell-based. The settings on record: compared with PMBN. As to the method: as §2
In data set [3] the test system is Gram-negative bacteria. Put plainly: Antimicrobial activity of the peptide per se (MIC assay). It counts as cell-based. Particulars: peptide alone. As to the method:
as §2

Data set [4] deals with phagocytosis of E. coli by human monocytes-derived macrophages. Description: Phagocytosis activity assay. It counts as cell-based. On the procedure: The conjugates and the control peptides were incubated with E. coli (10^6 CFU/mL) prior to the contact with human monocytes-derived macrophages monolayer. After 30 minutes of phagocyte-bacteria encounter, the phagocytes were washed, lysed and the released bacteria allowed to grow for 4.5 hours at 37° C. The amount of trapped bacteria were calculated as a function of absorbency at 600 nm.
The conjugates and the control peptides were incubated with E. coli (10^6 CFU/mL) prior to the contact with human monocytes-derived macrophages monolayer. After 30 minutes of phagocyte-bacteria encounter, the phagocytes were washed, lysed and the released bacteria allowed to grow for 4.5 hours at 37° C. The amount of trapped bacteria were calculated as a function of absorbency at 600 nm. fMLF by itself (10 μM) enhanced by 2.5 fold the phagocytosis comparing to the control (FIG. 2). […] Tuftsin-PMBN enhanced the phagocytosis by 3 folds comparing to the control.

Data set [5] deals with erythromycin resistant Klebsiella pneumoniae. Description: Mice protection assay. It counts as in vivo. The settings on record: for protection of mice, in words: with erythromycin; for Mice survival (Dead/Total): intraperitoneally. As to the method:
Sublethal dose of Klebsiella pneumoniae (2×10^5 cfu) were injected intreperitonially to mice. […] After additional 24 hours, the mice were treated once with half dose. Survival was followed daily for 7 days.
Polymyxin octapeptide conjugated with the tripeptide formyl Met-Leu-Phe (fMLF, SEQ ID NO:1) was assayed in combination with erythromycin for the ability to provide protection against Klebsiella pneumoniae infection in an in vivo infection model previously described (Ofek et al., 1994).

For data set [6], the system named is Gram-negative bacteria. Put plainly: Sensitization assay, bacterium not specified at the place. Format: cell-based. Particulars: comparison with PMBN. As to the method: as §1
The conditions of data set [7]: cited from earlier work.
The conditions of data set [8]: cited from earlier work. This is another data set of the same source.
Data set [9] has as its system clinical isolates of gram-negative bacteria. The settings on record: previous studies (Ofek et al, 1994); cited from earlier work.
For data set [10] the following is noted: Lam et al., 1986; cited from earlier work.
For data set [11], the system named is Klebsiella pneumoniae clinical isolates. Description: Sensitizing activity for clinical isolates (MIC of antibiotic). It counts as cell-based. The settings on record: antibiotic alone. On the procedure:
(§3) Experiments for the determining the sensitizing activity of the conjugates were performed similar to those described for PMBN in previous studies (Ofek et al 1994). All conjugates were teted at 20 μg/ml to determine the MIC of the indicated antibiotic. Antibiotics were purchased from Sigma (novobiocin, erythromycin and gentamycin), Bristol (Amikin), Galaxo (Zinacef), and B.R.L (augmentin). Numbers in brackets indicate number of is strains tested.

Data set [12] relates to Pseudomonas aeruginosa clinical isolates. Described as above. The settings on record: antibiotic alone. It counts as cell-based. On the procedure: as §3

The IC50 is the concentration that gives 50% inhibition. Regarding “Formyl-Met-Leu-Phe-Thr-Dab-cyclo[Dab-Dab-dPhe-Leu-Dab-Dab-Thr] [fMLF-PMBN]”, the “peptides potency (%) Escherichia coli” value in the data set on Escherichia coli is reported as 783%. The “peptides potency (%) Klebsiella pneumonia” value in the data set on Klebsiella pneumonia [1] is given as 475%. The “ability to displace Dansyl-PMBN from LPS / affinity to LPS, in words” value in the data set on E. coli LPS was “even lower than PMBN”. Also, the IC50 with E. coli LPS stood at 12 µM. The “effect of the added peptide on MIC of PMBN towards E. coli” value in the data set on E. coli was “did not significantly reduce”. For the same compound, the “effect of the added peptide on MIC of PMBN towards Klebsiella pneumonia” value in the data set on Klebsiella pneumonia [2] is reported as “did not significantly reduce”. The “antimicrobial activity per se” value with Gram-negative bacteria [3] is listed as “did not have antimicrobial activity by it self”; in the data set with Gram-negative bacteria [3] (listed as PMBN-fMLF) it was “no antimicrobial activity per se”. In [4] (1 μM), the “enhancement of phagocytosis, in words” value is given as “enhanced the phagocytosis of the bacteria”. Further, the “protection of mice, in words” value in data set [5] is listed as “Almost complete protection”.
For “Thr-Lys-Pro-Arg-Thr-Dab-cyclo[Dab-Dab-dPhe-Leu-Dab-Dab-Thr] [Tuftsin-PMBN]”, in the data set with Escherichia coli, the “peptides potency (%) Escherichia coli” value was 863%. For the same compound, in the data set with Klebsiella pneumonia [1], the “peptides potency (%) Klebsiella pneumonia” value worked out at 268%. Besides, in the data set on E. coli LPS, the “ability to displace Dansyl-PMBN from LPS / affinity to LPS, in words” value is on record as “much higher potency then PMBN” and the IC50 stood at 0.7 µM. Further, the “effect of the added peptide on MIC of PMBN towards E. coli” value in the data set on E. coli is “did not significantly reduce”. Further, in the data set with Klebsiella pneumonia [2], the “effect of the added peptide on MIC of PMBN towards Klebsiella pneumonia” value was “did not significantly reduce”. Moreover, in the data set with Gram-negative bacteria [3], the “antimicrobial activity per se” value is “did not have antimicrobial activity by it self”. In addition, in the data set on Gram-negative bacteria [3] (listed as PMBN-tuftsin), the “antimicrobial activity per se” value is listed as “no antimicrobial activity per se”. In addition, the “sensitizing activity, in words” value in the data set on Gram-negative bacteria [6] is “increased ability to enhance the permeability of the bacterial outer membrane to novobiocin”. Further, the “enhancement of phagocytosis comparing to the control” value in [4] (concentration not given) came to 3 folds.
As to “formyl-Met-Leu-Phe [fMLF, reference compound]”, the “enhancement of phagocytosis comparing to the control” value in data set [4] (10 μM) is 2.5 fold.
Turning to Polymyxin B, in the data set with E. coli LPS, the 50% inhibitory concentration (IC50) was determined as 0.5 µM. Moreover, in data set [5] (1.5 + 1.5 + 1.5 mg/Kg, no erythromycin), the “Mice survival (Dead/Total)” value is recorded as 3/18. In addition, the “neuromuscular blockade, neurotoxic or nephrotoxic effects” value in [7] (dogs, 3 mg/Kg body weight intravenously over a long period) is recorded as “all of which were observed”; in data set [8] (rats, 3 mg/Kg body weight intravenously over a long period), “all of which were observed”.
Consider “Thr-Dab-cyclo[Dab-Dab-dPhe-Leu-Dab-Dab-Thr] [PMBN]”, for which the “peptides potency (%) Escherichia coli” value with Escherichia coli is recorded as 100%. In the data set on Klebsiella pneumonia [1], the “peptides potency (%) Klebsiella pneumonia” value is reported as 100%. In addition, the IC50 in the data set on E. coli LPS worked out at 4.5 µM. Moreover, the “protection of mice, in words” value in [5] is reported as “partial protection”. Further, the “clinical isolates rendered more susceptible to novobiocin” value in data set [9] is 53 out of 53. For the same compound, the “dose that was not lethal (doses as high as)” value in [10] is listed as 200 mg/Kg body weight. Also, the “neuromuscular blockade, neurotoxic or nephrotoxic effects” value in [7] (dog, in vivo, iv, 3 mg/kg) was “did not cause neuromuscular blockade and neurotoxic or nephrotoxic effects”; in data set [8] (rat, in vivo, iv, 3 mg/kg), “did not cause neuromuscular blockade and neurotoxic or nephrotoxic effects”.
As to `CC[C@H]1OC(=O)[C@H](C)[C@@H](O[C@H]2C[C@@](C)(OC)[C@@H](O)[C@H](C)O2)[C@H](C)[C@@H](O[C@@H]2O[C@H](C)C[C@H](N(C)C)[C@H]2O)[C@](C)(O)C[C@@H](C)C(=O)[C@H](C)[C@@H](O)[C@]1(C)O` [Erythromycin], the “Mice survival (Dead/Total)” value in [5] (erythromycin 10 mg/Kg alone) is 18/18. Also, in data set [5], the “protection of mice, in words” value is “all 18 mice who received erythromycin only died”. Also, the “Range of MIC” value was 100 to 200 µg/mL in data set [11] and 200 µg/mL in data set [12].
With `CO[C@@H]1[C@@H](OC(N)=O)[C@@H](O)[C@H](Oc2ccc3c(O)c(NC(=O)c4ccc(O)c(CC=C(C)C)c4)c(=O)oc3c2C)OC1(C)C` [Novobiocin], in data set [12], the “Range of MIC” value was in the range of 62 to 1000 µg/mL.
Gentamycin: the “Range of MIC” value in data set [12] was found to be 1000 µg/mL.
